According to patent publication US3996229A, “1-[10,11-Dihydro-dibenzo[b,f]-thiepin-10-yl]-4-(alkynylalkyl)-piperazines” (Hoffmann-La Roche Inc., priority 1974, dated 1976):

Legend:
[1] = test system: rats; test: "Pole Climbing" Test (neuroleptic properties; blocking of conditioned and unconditioned reaction); type: in vivo, rat; conditions: for Quotient ED10 (blocking of the unconditioned reaction)/ED50 (blocking of the conditioned reaction) / ED50: rats; for Quotient ED10 (blocking of the unconditioned reaction)/ED50 (blocking of the conditioned reaction): p.o., higher quotient = greater selectivity of the neuroleptic action; for ED50: Rattus norvegicus, po, pole climbing, conditioned impulse (acoustic signal)
Experimental: The neuroleptic properties of the foregoing derivatives were determined numerically on the basis of the following test, i.e., the "pole climbing" test.
This test provides information about the behavior reaction of rats. Rats are trained to avoid, by climbing up a vertical pole in the test chamber, an electrical impulse--unconditioned impulse--released via the wire-latticed floor some seconds after an acoustic signal--conditioned impulse--.
The blocking of the conditioned reaction is designated by the parameter ED50 (mg/kg p.o.) and the blocking of the unconditioned reaction is designated by the parameter ED10 (mg/kg p.o.).
The parameter ED50 --blocking of the conditioned reaction--provides a measure of the neuroleptic activity strength of the derivative under investigation since, with falling value, the neuroleptic activity strength increases.

[2] = test system: rats; test: Catalepsy Test; type: in vivo, rat; conditions: rats, intraperitoneally
Experimental: (§1) Representative dibenzo[b,f]thiepin derivatives of this invention were administered intraperitoneally to rats. The animals are considered to be cataleptic when the homolateral extremities remain in a crossed position for at least 10 seconds. The number of cataleptic animals is noted every 30 minutes for 6 hours.

[3] = test system: mouse; test: Acute toxicity in the mouse; type: in vivo; conditions: acute toxicity, 24 hours
Experimental: (§2) The values relate to a duration of activity over a period of 24 hours: […]

[4] = Catalepsy Test; type: in vivo, rat; conditions: rat, in vivo, ip
Experimental: as §1

[5] = Acute toxicity in the mouse; type: in vivo; conditions: in vivo, po, period of 24 hours
Experimental: as §2

[6] = pole climbing test, chlorpromazine compared with Derivative A and Derivative B

Row | SMILES | neuroleptic activity (in words) [1, 6] | quality (selectivity) of the neuroleptic activity (in words) [1, 6] | Quotient ED10 (blocking of the unconditioned reaction)/ED50 (blocking of the conditioned reaction) [1] | cataleptic side-effects (in words) [2] | toxicity (in words) [3] | ED50 [1] [mg/kg] | TD50 at 6 h [4] [mg/kg] | LD50 at 24 h [5] [mg/kg]
1 | CN(C)CCCN1c2ccccc2Sc2ccc(Cl)cc21 [Chlorpromazine, reference compound] | somewhat stronger activity | clearly inferior | 2.5 | considerably greater cataleptic activity | clearly inferior | – | – | –
2 | C#CCN1CCN(C2Cc3ccc(OC)cc3Sc3ccc(SC)cc32)CC1.Cl.Cl (stereo not drawn) [Derivative A, 1-[10,11-Dihydro-3-methoxy-8-methylthio-dibenzo[b,f]thiepin-10-yl]-4-(2-propynyl)-piperazine dihydrochloride] | – | – | 9 | only very slight or no cataleptic side-effects | – | 17 | 88 | 900
3 | C#CCN1CCN(C2Cc3ccc(OC)cc3Sc3ccc(Cl)cc32)CC1.CS(=O)(=O)O.CS(=O)(=O)O (stereo not drawn) [Derivative B, 1-[8-Chloro-10,11-dihydro-3-methoxy-dibenzo[b,f]thiepin-10-yl]-4-(2-propynyl)-piperazine dimethanesulfonate] | – | – | 4 | only very slight or no cataleptic side-effects | – | 25 | > 100 | 750
